The source of these data is BindingDB's records for patent US11447504 (Bayer Aktiengesellschaft; Bayer Pharma Aktiengesellschaft; …, 2022).

“And” between values parts separate entries of the source, which are not always exact repeats. Identical values can stand only once.

As usually defined, the IC50 is the midpoint of a concentration-inhibition curve. A lower IC50 goes with greater potency in that assay.

The target in the experiment is T1, Induced myeloid leukemia cell differentiation protein Mcl-1 [K194A,K197A,R201A] (Homo sapiens, UniProt Q07820, K194A/K197A/R201A).
T1 construct: gene MCL1
Nature of the experiment: MCL-1/Noxa BH3 Peptide (MCL-1 Assay). As for the experimental part: The dose-dependent inhibition by the compounds described in this invention of the interaction between MCL-1 and the BH3 domain of Noxa (both human) was determined using a steady state binding competition assay with time-resolved fluorescence energy transfer (TR-FRET) readout. […] The MBP-MCL-1 was purchased from Beryllium (Bedford, Mass., USA). […] The Noxa BH3-derived peptide can be obtained from e.g. Biosyntan (Berlin, Germany).

T1 sequence (Q07820 whole entry K194A/K197A/R201A, looked up): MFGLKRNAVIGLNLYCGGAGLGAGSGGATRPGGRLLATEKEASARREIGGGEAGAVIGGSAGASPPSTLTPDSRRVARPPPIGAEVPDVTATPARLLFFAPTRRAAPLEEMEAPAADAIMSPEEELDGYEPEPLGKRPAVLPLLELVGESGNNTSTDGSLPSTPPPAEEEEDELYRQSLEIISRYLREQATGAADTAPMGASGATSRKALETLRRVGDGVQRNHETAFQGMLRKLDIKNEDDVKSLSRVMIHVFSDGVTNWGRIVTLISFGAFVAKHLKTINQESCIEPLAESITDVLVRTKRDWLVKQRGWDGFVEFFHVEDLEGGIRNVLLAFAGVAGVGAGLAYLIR

`Cc1c2c(nn1C)N(C)CCCCCn1c(C(=O)O)c(CCCOc3cccc4ccccc34)c3ccc(Cl)c-2c31` [US11447504, Example 71] returned a 50% inhibitory concentration (IC50) of 2.2 nM.

Consider `CCc1c2c(nn1C)N(C)CCCCCn1c(C(=O)O)c(CCCOc3cccc4cc(F)ccc34)c3ccc(Cl)c-2c31` [US11447504, Example 77], for which the IC50 is 2.1 nM and 6.4 nM.
